Experimental data taken from patent US20120302573A1, “METHODS OF INHIBITING PRO MATRIX METALLOPROTEINASE ACTIVATION” (priority 2011, published 2012).
Where a name gives a salt, the structure may show the parent alone.

Assays:
[1] = target: full-length proMMP9(1-707) activation by catalytic MMP3 (Homo sapiens, UniProt P14780, R574P); test: ProMMP9/MMP3 DQ Gelatin Activation Assay;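 further: readout is fluorescence of quenched fluorescein gelatin cut by activated MMP9, 30 min activation at 37 °C, inhibition relative to DMSO-only controls with EDTA as blank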; type: biochemical; design: made in house; host or cells: COS-1 (proMMP9); E. coli (MMP3); conditions: proMMP9 from COS-1 cells; read-out: ProMMP9/MMP3 DQ gel, IC50
[2] = target: T1, proMMP9(67-444;ΔFnII) (SEQ ID NO:5) (Homo sapiens, UniProt P14780, DEL216-390); test: ThermoFluor binding assay with proMMP9(67-444;ΔFnII)
T1 construct: amino acid pairs including: 29-215/391-444, 67-215/391-444, and 20-215/391-445, respectively; start methionine (N); made in house; host or cells: E. coli BL21(DE3) RIL
T1 sequence (P14780 with tags, fused parts or gaps DEL216-390): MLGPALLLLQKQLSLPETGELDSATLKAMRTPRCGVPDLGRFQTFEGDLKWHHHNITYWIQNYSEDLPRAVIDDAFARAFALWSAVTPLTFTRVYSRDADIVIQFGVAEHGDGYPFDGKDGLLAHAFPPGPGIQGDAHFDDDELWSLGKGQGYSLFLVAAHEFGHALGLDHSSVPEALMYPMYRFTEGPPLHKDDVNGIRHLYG
Procedure: (§1) The experiments were carried out using instruments available from Johnson & Johnson Pharmaceutical Research & Development, LLC. TF dye used in all experiments was […] (1,8-ANS) (Invitrogen: A-47).
(§2) Columns 12 and 24 were used as DMSO reference and contained no compound. […] Following compound dispense, protein and dye solutions were added to achieve the final assay volume of 3 μL.
(§3) Assay plates were robotically loaded onto a thermostatically controlled PCR-type thermal block and then heated from 40 to 90° C. at a ramp-rate of 1° C./min for all experiments. Fluorescence was measured by continuous illumination with UV light (Hamamatsu LC6) supplied via fiber optics and filtered through a band-pass filter (380-400 nm; >6 OD cutoff). Fluorescence emission of the entire 384-well plate was detected by measuring light intensity using a CCD camera (Sensys, Roper Scientific) filtered to detect 500±25 nm, resulting in simultaneous and independent readings of all 384 wells.
(§4) Thermodynamic parameters necessary for fitting compound binding for each proMMP were estimated by differential scanning calorimetry (DSC) and from ThermoFluor® data. The heat capacity of unfolding for each protein was estimated from the molecular weight and from ThermoFluor® dosing data.
The protein sample preparations had to include a desalting buffer exchange step via a PD-10 gravity column (GE Healthcare).

[3] = target: T2, proMMP13(1-268) (SEQ ID NO:7) (Homo sapiens, UniProt P45452); test: ThermoFluor binding assay with proMMP13(1-268)
T2 construct: 6x-histidine tag (C); made in house; host or cells: HEK293
Procedure: The ThermoFluor® (TF) assay is a 384-well plate-based binding assay that measures thermal stability of proteins (Biomol Screen 2001, 6, 429-40; Biochemistry 2005, 44, 5258-66). The experiments were carried out using instruments available from Johnson & Johnson Pharmaceutical Research & Development, LLC. TF dye used in all experiments was […] (1,8-ANS) (Invitrogen: A-47).
Compounds were arranged in a pre-dispensed plate (Greiner Bio-one: 781280), wherein compounds were serially diluted in 100% DMSO across 11 columns within a series. Columns 12 and 24 were used as DMSO reference and contained no compound. For multiple compound concentration-response experiments, the compound aliquots ([…]) were robotically predispensed directly into black 384-well polypropylene PCR microplates (Abgene: TF-0384/k) using a Cartesian Hummingbird liquid handler (DigiLab, Holliston, Mass.). Following compound dispense, protein and dye solutions were added to achieve the final assay volume of 3 μL. The assay solutions were overlayed with 1 μL of silicone oil (Fluka, type DC 200: 85411) to prevent evaporation.
as §3, with “wells. A single image with 20-sec exposure time was collected at each temperature, and the sum of the pixel intensity in a given area of the assay plate was recorded vs temperature and fit to standard equations to yield the Tm (J Biomol Screen 2001, 6, 429-40).” for “wells.”
as §4
The proMMP13(1-268) (SEQ ID NO:7) protein sample preparations included a desalting buffer exchange step via a PD-10 gravity column (GE Healthcare). The desalting buffer exchange was performed prior to diluting the protein to the final assay concentration of 3.5 μM. The concentration of proMMP13(1-268) (SEQ ID NO:7) was estimated spectrophotometrically based on a calculated extinction coefficient of ε280=37000 M^−1 cm^−1, a calculated molecular weight of 30.8 kDa, and calculated pI of 5.33. ThermoFluor® reference conditions were defined as follows: 100 μg/mL proMMP13(1-268) (SEQ ID NO:7), 25 μM 1,8-ANS, pH 7.0 Buffer (50 mM HEPES pH 7.0, 100 mM NaCl, 0.001% Tween-20, 2.5 mM MgCl2, 300 μM CaCl2). The thermodynamic parameters for proMMP13(1-268) (SEQ ID NO:7) are as follows: Tm (° C.)=67 (+/−0.1), ΔUH(Tm) (cal mol^−1)=107000(+/−5000), ΔUS(Tm) (cal mol^−1 K^−1)=318, ΔUCp (cal mol^−1 K^−1)=2600.

[4] = target: T3, proMMP9(20-445;ΔFnII) (SEQ ID NO:6) (Homo sapiens, UniProt P14780, DEL216-390); test: ThermoFluor binding assay with proMMP9(20-445;ΔFnII)
T3 construct: amino acid pairs including: 29-215/391-444, 67-215/391-444, and 20-215/391-445, respectively; start methionine (N); made in house; host or cells: E. coli BL21(DE3) RIL
T3 sequence (P14780 with tags, fused parts or gaps DEL216-390): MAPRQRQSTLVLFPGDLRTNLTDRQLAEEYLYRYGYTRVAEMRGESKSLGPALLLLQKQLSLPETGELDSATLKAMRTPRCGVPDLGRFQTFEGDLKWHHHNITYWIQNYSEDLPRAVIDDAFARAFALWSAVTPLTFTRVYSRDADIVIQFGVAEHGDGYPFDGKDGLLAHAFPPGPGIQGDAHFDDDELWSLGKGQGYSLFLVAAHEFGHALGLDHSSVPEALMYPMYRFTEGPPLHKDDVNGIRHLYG
Procedure: as §1, §2, §3, §4
The protein sample preparations included a desalting buffer exchange step via a PD-10 gravity column (GE Healthcare).

Sequence of full-length proMMP9(1-707) activation by catalytic MMP3 (P14780 20-707 R574P): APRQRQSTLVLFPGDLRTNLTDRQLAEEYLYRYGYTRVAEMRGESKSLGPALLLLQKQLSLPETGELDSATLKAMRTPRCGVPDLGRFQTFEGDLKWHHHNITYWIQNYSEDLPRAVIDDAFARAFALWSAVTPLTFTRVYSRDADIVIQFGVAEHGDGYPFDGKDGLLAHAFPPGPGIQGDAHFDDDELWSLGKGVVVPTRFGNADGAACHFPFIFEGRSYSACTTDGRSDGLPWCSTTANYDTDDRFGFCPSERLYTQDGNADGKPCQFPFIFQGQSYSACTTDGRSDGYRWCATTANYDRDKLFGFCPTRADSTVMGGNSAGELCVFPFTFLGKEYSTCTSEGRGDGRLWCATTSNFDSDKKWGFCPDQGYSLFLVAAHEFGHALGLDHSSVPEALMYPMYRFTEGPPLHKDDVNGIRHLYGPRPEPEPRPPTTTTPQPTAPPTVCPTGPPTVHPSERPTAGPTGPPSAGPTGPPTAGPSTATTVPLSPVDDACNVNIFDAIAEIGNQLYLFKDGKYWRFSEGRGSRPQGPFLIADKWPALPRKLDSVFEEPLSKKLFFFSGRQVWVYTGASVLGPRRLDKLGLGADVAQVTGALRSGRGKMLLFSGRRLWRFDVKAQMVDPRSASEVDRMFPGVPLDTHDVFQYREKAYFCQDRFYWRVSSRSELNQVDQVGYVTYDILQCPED

| Structure (SMILES) | IC50 [1] | Kd [2] | Kd [3] | Kd [4] |
| --- | --- | --- | --- | --- |
| CCc1nc(N)sc1-c1nc(Nc2cc(Cl)ccc2OC)sc1C [Example 17, N^2-(5-Chloro-2-methoxy-phenyl)-4′-ethyl-5-methyl-[4,5′]bithiazolyl-2,2′-diamine] |  | 3.99 µM | 10.7 µM | 15.6 µM |
| COc1ccccc1Nc1nc(-c2c(C)nc3ccccn23)cs1 [Example 46, (2-Methoxy-phenyl)-[4-(2-methyl-imidazo[1,2-a]pyridin-3-yl)-thiazol-2-yl]-amine] | 8.6 µM | 36.7 µM | 16 µM | 65.2 µM |
| CCOc1ccccc1Nc1nc(-c2sc(NC(=O)CC)nc2C)cs1 [Example 47, N-[2-(2-Ethoxy-phenylamino)-4′-methyl-[4,5′]bithiazolyl-2′-yl]-propionamide] | 5.2 µM | 40.9 µM | > 95 µM | > 90 µM |
| COc1ccccc1Nc1nc(-c2cc(C)ccn2)cs1 [Example 30, (2-Methoxy-phenyl)-[4-(4-methyl-pyridin-2-yl)-thiazol-2-yl]-amine.TFA] |  | 13.8 µM | 42 µM | > 95 µM |
| COc1ccccc1Nc1nc(-c2sc(C)nc2C)cs1 [Example 64, (2′-4′-Dimethyl-[4,5′]bithiazolyl-2-yl)-(2-methoxy-phenyl)-amine] | 2.1 µM | 45.3 µM | > 95 µM | 47.5 µM |
| CCOc1ccccc1Nc1nc(-c2cccnc2)cs1 [Example 53, (2-Ethoxy-phenyl)-(4-pyridin-3-yl-thiazol-2-yl)-amine] | 4.7 µM | 15.1 µM | > 95 µM | 28.6 µM |
| COc1ccccc1Nc1nc(-c2cccnc2)cs1 [Example 55, (2-Methoxy-phenyl)-(4-pyridin-3-yl-thiazol-2-yl)-amine] | 13 µM | 22.5 µM | > 95 µM | > 95 µM |
| COc1c(Cl)cccc1Nc1nc(-c2sc(N)nc2C)cs1 [Example 7, N^2-(3-Chloro-2-methoxy-phenyl)-4′-methyl-[4,5′]bithiazolyl-2,2′-diamine.HBr] |  | 8.84 µM | 44.6 µM | 12.9 µM |
| COc1ccc(-c2csc(Nc3ccccc3OC)n2)cn1 [Example 28, (2-Methoxy-phenyl)-[4-(6-methoxy-pyridin-3-yl)-thiazol-2-yl]-amine.TFA] | 15.6 µM | 22.6 µM | > 95 µM | > 65 µM |
| COc1ccccc1Nc1nc(-c2cnc(N)s2)cs1 [Example 10, N^2-(2-Methoxy-phenyl)-[4,5′]bithiazolyl-2,2′-diamine.HBr] |  | 3.67 µM | 55.9 µM | 9.61 µM |
| COc1ccccc1Nc1nc(-c2sc(NC(C)C)nc2C)cs1 [Example 37, N^2′-Isopropyl-N^2-(2-methoxy-phenyl)-4′-methyl-[4,5′]bithiazolyl-2,2′-diamine.HCl] | > 20 µM | 4.48 µM | > 95 µM | 5.16 µM |
| COc1ccccc1Nc1nc(-c2c[nH]c3ncccc23)cs1 [Example 76, (2-Methoxy-phenyl)-[4-(1H-pyrrolo[2,3-b]pyridin-3-yl)-thiazol-2-yl]-amine] | 16.3 µM | 10.8 µM | 57.1 µM | 27 µM |
| CCC(=O)Nc1nc(C)c(-c2csc(Nc3ccccc3OC)n2)s1 [Example 58, N-[2-(2-Methoxy-phenylamino)-4′-methyl-[4,5′]bithiazolyl-2′-yl]-propionamide] | 2.6 µM | 3.01 µM | > 95 µM | 13.4 µM |
| COc1ccccc1Nc1nc(-c2ccncc2)cs1 [Example 60, (2-Methoxy-phenyl)-(4-pyridin-4-yl-thiazol-2-yl)-amine] | 5.5 µM | 11.3 µM | 44.4 µM | 16.8 µM |
| COc1ccccc1Nc1nc(-c2sc(-c3cnccn3)nc2C)cs1 [Example 26, (2-Methoxy-phenyl)-(4′-methyl-2′-pyrazin-2-yl-[4,5′]bithiazolyl-2-yl)-amine.TFA] | 13.8 µM | > 95 µM | 4.78 µM | > 95 µM |

Further compounds by falling Kd [2], results first:

| IC50 [1] | Kd [2] | Kd [3] | Kd [4] | Structure (SMILES) |
| --- | --- | --- | --- | --- |
|  | 30.2 µM | 26.9 µM | 10.8 µM | Cc1nc(N)sc1-c1csc(Nc2cccc(C(N)=O)c2)n1 [Example 8, 3-(2′-Amino-4′-methyl-[4,5′]bithiazolyl-2-ylamino)-benzamide.HBr] |
|  | 19.9 µM | 58.9 µM | > 95 µM | CCc1nc(N)sc1-c1nc(Nc2ccccc2OC)sc1C [Example 11, 4′-Ethyl-N^2-(2-methoxy-phenyl)-5-methyl-[4,5′]bithiazolyl-2,2′-diamine] |
| 17.9 µM | 15.9 µM | 18 µM | 25.5 µM | COc1ccc(OC)c(Nc2nc(-c3c[nH]c4ncccc34)cs2)c1 [Example 73, (2,5-Dimethoxy-phenyl)-[4-(1H-pyrrolo[2,3-b]pyridin-3-yl)-thiazol-2-yl]-amine] |
| > 20 µM | 13.1 µM | 20.4 µM | 76.7 µM | COc1ccccc1Nc1nc(-c2ccc(-c3ccccc3)s2)cs1 [Example 43, (2-Methoxy-phenyl)-[4-(5-phenyl-thiophen-2-yl)-thiazol-2-yl]-amine.TFA] |
| 17.9 µM | 10.1 µM | 28.9 µM | 17.9 µM | COc1ccccc1Nc1nc(-c2cnc3cnccn23)cs1 [Example 75, (4-Imidazo[1,2-a]pyrazin-3-yl-thiazol-2-yl)-(2-methoxy-phenyl)-amine] |
|  | 2.32 µM | 44.2 µM | 12.3 µM | COc1ccccc1Nc1nc(-c2sc(N)nc2C(F)(F)F)cs1 [Example 22, N^2-(2-Methoxy-phenyl)-4′-trifluoromethyl-[4,5′]bithiazolyl-2,2′-diamine.TFA] |
